Assay results from patent US8969516B2, “Method of hydrolysis of peptide bond” (priority 2006, dated 2015).

Experiment: MALDI-TOF screening of Ni^2+ dependent hydrolysis in a combinatorial peptide library
Format: physicochemical
Conditions: Ni^2+ 2 mM, pH 8.2, 10 mM Tris, score=24/tm
Procedure, shortened: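 Peptide sublibraries CH3CO-Gly-Ala-Ser/Thr-X-His-Z-Lys-Phe-Leu-NH2 (1 mM total) incubated with 2 mM Ni^2+ in 10 mM Tris pH 8.2 at 37 °C and 45 °C. Hydrolysis products, plus loss of substrate signals, detected by MALDI-TOF at 2, 4, 6 and 8 h; residues X and Z scored and ranked.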

[1] = CH3CO-Gly-Ala-Thr-X-His-Z-Lys-Phe-Leu-NH2 library, 37° C.
[2] = CH3CO-Gly-Ala-Thr-X-His-Z-Lys-Phe-Leu-NH2 library, 45° C.
[3] = CH3CO-Gly-Ala-Ser-X-His-Z-Lys-Phe-Leu-NH2 library, 37° C.
[4] = CH3CO-Gly-Ala-Ser-X-His-Z-Lys-Phe-Leu-NH2 library, 45° C.

| Substance | hydrolysis score from MALDI-TOF screening [1] | hydrolysis score from MALDI-TOF screening [2] | hydrolysis score from MALDI-TOF screening [3] | hydrolysis score from MALDI-TOF screening [4] |
| --- | --- | --- | --- | --- |
| Ac-GATFHGKFL-NH2 [TFHG] | 0 (a score of 0 if no trace of the product of hydrolysis was seen after 8 hours of incubation) | 0 (a score of 0 if no trace of the product of hydrolysis was seen after 8 hours of incubation) | – | – |
| Ac-GASYHDKFL-NH2 [SYHD] | – | – | 0 (a score of 0 if no trace of the product of hydrolysis was seen after 8 hours of incubation) | 0 (a score of 0 if no trace of the product of hydrolysis was seen after 8 hours of incubation) |
| Ac-GASVHGKFL-NH2 [SVHG] | – | – | 0 (a score of 0 if no trace of the product of hydrolysis was seen after 8 hours of incubation) | 0 (a score of 0 if no trace of the product of hydrolysis was seen after 8 hours of incubation) |
| Ac-GATKHEKFL-NH2 [TKHE] | 0 (a score of 0 if no trace of the product of hydrolysis was seen after 8 hours of incubation) | 0 (a score of 0 if no trace of the product of hydrolysis was seen after 8 hours of incubation) | – | – |
| Ac-GASLHFKFL-NH2 [SLHF] | – | – | 0 (a score of 0 if no trace of the product of hydrolysis was seen after 8 hours of incubation) | 3 (a score of 3 for detection at 8 hours) |
| Ac-GASWHGKFL-NH2 [SWHG] | – | – | 0 (a score of 0 if no trace of the product of hydrolysis was seen after 8 hours of incubation) | 3 (a score of 3 for detection at 8 hours) |
| Ac-GATRHMKFL-NH2 [TRHM] | 3 (a score of 3 for detection at 8 hours) | 4 (a score of 4 for detection at 6 hours) | – | – |
| Ac-GATGHHKFL-NH2 [TGHH] | 0 (a score of 0 if no trace of the product of hydrolysis was seen after 8 hours of incubation) | 0 (a score of 0 if no trace of the product of hydrolysis was seen after 8 hours of incubation) | – | – |
| Ac-GASIHWKFL-NH2 [SIHW] | – | – | 3 (a score of 3 for detection at 8 hours) | 3 (a score of 3 for detection at 8 hours) |
| Ac-GATYHAKFL-NH2 [TYHA] | 0 (a score of 0 if no trace of the product of hydrolysis was seen after 8 hours of incubation) | 0 (a score of 0 if no trace of the product of hydrolysis was seen after 8 hours of incubation) | – | – |
| Ac-GASRHKKFL-NH2 [SRHK] | – | – | 6 (a score of 6 for detection at 4 hours) | 12 (a score of 12, if it was seen to be partially hydrolysed at 2 hours) |
| Ac-GASRHIKFL-NH2 [SRHI] | – | – | 12 (a score of 12, if it was seen to be partially hydrolysed at 2 hours) | 12 (a score of 12, if it was seen to be partially hydrolysed at 2 hours) |
| Ac-GATMHMKFL-NH2 [TMHM] | 0 (a score of 0 if no trace of the product of hydrolysis was seen after 8 hours of incubation) | 0 (a score of 0 if no trace of the product of hydrolysis was seen after 8 hours of incubation) | – | – |
| Ac-GATRHTKFL-NH2 [TRHT] | 0 (a score of 0 if no trace of the product of hydrolysis was seen after 8 hours of incubation) | 0 (a score of 0 if no trace of the product of hydrolysis was seen after 8 hours of incubation) | – | – |
| Ac-GATNHNKFL-NH2 [TNHN] | 0 (a score of 0 if no trace of the product of hydrolysis was seen after 8 hours of incubation) | 0 (a score of 0 if no trace of the product of hydrolysis was seen after 8 hours of incubation) | – | – |
| Ac-GATSHDKFL-NH2 [TSHD] | 0 (a score of 0 if no trace of the product of hydrolysis was seen after 8 hours of incubation) | 0 (a score of 0 if no trace of the product of hydrolysis was seen after 8 hours of incubation) | – | – |
| Ac-GASYHVKFL-NH2 [SYHV] | – | – | 6 (a score of 6 for detection at 4 hours) | 4 (a score of 4 for detection at 6 hours) |
| Ac-GASNHSKFL-NH2 [SNHS] | – | – | 0 (a score of 0 if no trace of the product of hydrolysis was seen after 8 hours of incubation) | 0 (a score of 0 if no trace of the product of hydrolysis was seen after 8 hours of incubation) |
| Ac-GATAHKKFL-NH2 [TAHK] | 0 (a score of 0 if no trace of the product of hydrolysis was seen after 8 hours of incubation) | 0 (a score of 0 if no trace of the product of hydrolysis was seen after 8 hours of incubation) | – | – |
| Ac-GATRHDKFL-NH2 [TRHD] | 0 (a score of 0 if no trace of the product of hydrolysis was seen after 8 hours of incubation) | 0 (a score of 0 if no trace of the product of hydrolysis was seen after 8 hours of incubation) | – | – |
| Ac-GASVHQKFL-NH2 [SVHQ] | – | – | 0 (a score of 0 if no trace of the product of hydrolysis was seen after 8 hours of incubation) | 0 (a score of 0 if no trace of the product of hydrolysis was seen after 8 hours of incubation) |
| Ac-GASNHQKFL-NH2 [SNHQ] | – | – | 0 (a score of 0 if no trace of the product of hydrolysis was seen after 8 hours of incubation) | 0 (a score of 0 if no trace of the product of hydrolysis was seen after 8 hours of incubation) |
| Ac-GATFHKKFL-NH2 [TFHK] | 3 (a score of 3 for detection at 8 hours) | 3 (a score of 3 for detection at 8 hours) | – | – |
| Ac-GASKHMKFL-NH2 [SKHM] | – | – | 3 (a score of 3 for detection at 8 hours) | 4 (a score of 4 for detection at 6 hours) |
| Ac-GASNHDKFL-NH2 [SNHD] | – | – | 0 (a score of 0 if no trace of the product of hydrolysis was seen after 8 hours of incubation) | 0 (a score of 0 if no trace of the product of hydrolysis was seen after 8 hours of incubation) |
| Ac-GASQHAKFL-NH2 [SQHA] | – | – | 0 (a score of 0 if no trace of the product of hydrolysis was seen after 8 hours of incubation) | 3 (a score of 3 for detection at 8 hours) |
| Ac-GASKHTKFL-NH2 [SKHT] | – | – | 0 (a score of 0 if no trace of the product of hydrolysis was seen after 8 hours of incubation) | 0 (a score of 0 if no trace of the product of hydrolysis was seen after 8 hours of incubation) |
| Ac-GASYHLKFL-NH2 [SYHL] | – | – | 4 (a score of 4 for detection at 6 hours) | 6 (a score of 6 for detection at 4 hours) |
| Ac-GASMHMKFL-NH2 [SMHM] | – | – | 3 (a score of 3 for detection at 8 hours) | 3 (a score of 3 for detection at 8 hours) |
| Ac-GASKHAKFL-NH2 [SKHA] | – | – | 0 (a score of 0 if no trace of the product of hydrolysis was seen after 8 hours of incubation) | 0 (a score of 0 if no trace of the product of hydrolysis was seen after 8 hours of incubation) |
